# Literature values, collected in US20260048030A1, “REPARIXIN LIQUID SUSPENSIONS” (Dompe' Farmaceutici SPA, priority 2022, published 2026).
# Test system: hospitalized patients with severe COVID-19 pneumonia
# Settings: phase 2
smiles,measurement,value
"CC(C)Cc1ccc([C@@H](C)C(=O)NS(C)(=O)=O)cc1 [Reparixin, R-(−)-2-(4-isobutylphenyl)propionyl methansulfonamide]",Clinical outcomes compared with the standard of care,improved clinical outcomes
